Molecules are shown by their SMILES.

A short description of data set [1]: Solubility in LLDPE film by diffusion-in, X-ray fluorescence. In kind it is physicochemical. On the procedure: Experiments are carried out to determine the solubility of the instant compound into linear low density polyethylene (LLDPE) films at 20° C., 40° C. and 60° C. by diffusion-in of a relatively homogeneous particle size (<70 microns) of the test sample suspended in silicon oil.
Each sample is carefully ground with a mortar and pestle and the particle size below 70 microns is separated by sieving with a 200 mesh screen. The powder is then suspended in silicon oil (polydimethylsiloxane, L-45, Union Carbide Chemicals) at a concentration of approximately 38% (wt/wt). A few drops of this suspension is placed on a 10 mil (0.254 mm) thick, 2"×2" (5.08 cm×5.08 cm) compression molded film and a second film of the same dimension is placed on top. The films are gently pressed together so that the suspension forms a thin liquid layer between the polymer films. Excess suspension is removed and the procedure is repeated till a stack of eight films (six films for evaluation) are prepared. The stack is then placed between two 2.5"×2.5" (6.35 cm×6.35 cm) ceramic tiles and wrapped in aluminum foil and held together with a G-clamp. Each stack is aged at 20° C., 40° C. and 60° C. under a nitrogen atmosphere. At specified intervals, a single film is removed from the stack and the excess suspension is washed from the film with hexane. The film is then analyzed by X-ray fluorescence for total phosphorus content. LLDPE containing 0, 1000 ppm and 2000 ppm of the test compound are used as standard controls for this X-ray fluorescence method.

A short description of data set [2]: Solubility in lubricating oil (Mobil BB oil). Particulars: 1% by weight in Mobil BB oil (Exp. 4f), at 60° C. per footnote. In kind it is physicochemical.
Data set [3] in a line: Apparent bulk density (ASTM D-1895). Type of data set: physicochemical. As to the method: The apparent bulk density of the solids is measured according to the method of ASTM D-1895 (79). A higher apparent bulk density allows for a greater mass per unit volume which affords advantages in packaging of the solid product, such as lower costs for the packaging material, less storage space is required, etc.

Data set [4] in a line: Solubility in lubricating oil (Mobil BB oil). In kind it is physicochemical. As to the method: The following experiments are performed to determine the solubility of amorphous compound A and crystalline compound B in Mobil BB oil. Both compounds have the same uniform particle sizes (40-70 micron).
Compound A=amorphous form of 2,2',2"-nitrilo-[triethyl-tris-(3,3',5,5'-tetra-tert-butyl-1,1'-biphenyl-2,2'-diyl) phosphite], prepared in accordance with instant Example 1.
Compound B=crystalline form of 2,2',2"-nitrilo[triethyl-tris-(3,3',5,5'-tetra-tert-butyl-1,1'-biphenyl-2,2'-diyl) phosphite], prepared in accordance with Example 4 of U.S. Pat. No. 4,318,845.
Into a vial of 980 mg. of Mobil BB oil is added 20 mg. of compound A at ambient temperature. For the first 30 minutes, the vial is shaken every 10 minutes. After the initial 30 minutes, the vial is left standing.
Into a vial of 980 mg. of Mobil BB oil is added 20 mg. of compound B at ambient temperature. For the first 30 minutes, the vial is shaken every 10 minutes. After the initial 30 minutes, the vial is left standing.
Into a vial of 980 mg. of Mobil BB oil is added 20 mg. of compound A at ambient temperature. The vial is then placed into a 60° C. oil bath.
Into a vial of 980 mg. of Mobil BB oil is added 20 mg. of compound B at ambient temperature. The vial is then placed into a 60° C. oil bath.
Into a vial of 990 mg. of Mobil BB oil is added 10 mg. of compound A at ambient temperature. […] is shaken every 10 minutes. After the initial 30 minutes, the vial is left standing.
Into a vial of 990 mg. of Mobil BB oil is added 10 mg. of compound B at ambient temperature. […] is shaken every 10 minutes. After the initial 30 minutes, the vial is left standing.

A short description of data set [5]: Process stabilization of polypropylene: yellowness index of plaques (ASTM D1925). Particulars: 0.075% by weight of each additive, 0.075% calcium stearate. An excerpt: (§1) The test additives are incorporated into the polypropylene by dry blending or, when the additive is a liquid, using a minimum amount of methylene chloride solvent. The solvent is then removed by evaporation under reduced pressure.

Data set [6] can be described thus: Process stabilization of polypropylene at 525° F.: melt flow rate (ASTM D1238). The conditions noted are these: 0.075% by weight of each additive, 0.075% calcium stearate, 525° F. On the procedure:
as §1
After each of the first, third and fifth extrusions, the melt flow rate (in grams/10 minutes) is determined by ASTM method D1238 on the pellets obtained from the extruder.

With `CC(C)(C)c1cc(C(C)(C)C)c2op(OCCN(CCOp3oc4c(C(C)(C)C)cc(C(C)(C)C)cc4c4cc(C(C)(C)C)cc(C(C)(C)C)c4o3)CCOp3oc4c(C(C)(C)C)cc(C(C)(C)C)cc4c4cc(C(C)(C)C)cc(C(C)(C)C)c4o3)oc3c(C(C)(C)C)cc(C(C)(C)C)cc3c2c1` [Example 4 of U.S. 4,318,845, 2,2',2"-nitrilo[triethyl-tris-(3,3',5,5'-tetra-tert-butyl-1,1'-biphenyl-2,2'-diyl)phosphite], reference compound], the “Solubility of Compound in LLDPE at 20° C.” value in data set [1] (interval 15 (time unit not given)) worked out at 1500 ppm; in data set [1] (interval 28 (time unit not given)) it was 1000 ppm; in data set [1] (interval 35 (time unit not given)) it was 1200 ppm; in data set [1] (interval 44 (time unit not given)), 1200 ppm; in data set [1] (third section, interval 6 (time unit not given)) it was 1000 ppm; in data set [1] (third section, interval 14 (time unit not given)) it was 800 ppm. In addition, the “Solubility of Compound in LLDPE at 20° C.” value in data set [1] (third section, interval 22 (time unit not given)) worked out at 1000 ppm; in data set [1] (third section, interval 28 (time unit not given)), 900 ppm; in data set [1] (third section, interval 37 (time unit not given)), 900 ppm. The “Solubility of Compound in LLDPE at 40° C.” value in data set [1] (interval 10 (time unit not given)) is 500 ppm; in data set [1] (interval 17 (time unit not given)), 1750 ppm; in data set [1] (interval 25 (time unit not given)) it was 750 ppm; in data set [1] (interval 34 (time unit not given)), 400 ppm; in data set [1] (interval 40 (time unit not given)) it was 600 ppm; in data set [1] (interval 47 (time unit not given)) it was 1400 ppm. Further, the “Time to clear solution” value came out at 5 h in data set [2]; 16 h in data set [4] (1% by weight in Mobil BB oil, RT, listed as compound B); 5 h in data set [4] (2% by weight in Mobil BB oil, 60° C. oil bath, listed as B); 16 h in data set [4] (2% by weight in Mobil BB oil, 60° C. oil bath, listed as compound B); 16 h in data set [4] (2% by weight in Mobil BB oil, RT, listed as B); 16 h in data set [4] (2% by weight in Mobil BB oil, RT, listed as compound B). Besides, the “Bulk Density” value in data set [3] is reported as 0.44 g/mL. Also, the Observation entry in data set [4] (1% by weight in Mobil BB oil, RT, 1.5 hrs., listed as B) is “Cloudy”; in data set [4] (1% by weight in Mobil BB oil, RT, 1.5 hrs., listed as compound B), “cloudy suspension”; in data set [4] (2% by weight in Mobil BB oil, 60° C. oil bath, 10 min., listed as B) it was “Cloudy”; in data set [4] (2% by weight in Mobil BB oil, 60° C. oil bath, 10 min., listed as compound B), “cloudy suspension”; in data set [4] (2% by weight in Mobil BB oil, RT, 2.5 hrs., listed as B), “Cloudy”; in data set [4] (2% by weight in Mobil BB oil, RT, 2.5 hrs., listed as compound B) it was “cloudy suspension”.

With `CC(C)(C)c1cc(CCC(=O)OCC(COC(=O)CCc2cc(C(C)(C)C)c(O)c(C(C)(C)C)c2)(COC(=O)CCc2cc(C(C)(C)C)c(O)c(C(C)(C)C)c2)COC(=O)CCc2cc(C(C)(C)C)c(O)c(C(C)(C)C)c2)cc(C(C)(C)C)c1O` [Base, neopentanetetrayl tetrakis(3,5di-tert-butyl-4-hydroxyhydrocinnamate)], in data set [5] (after fifth extrusion), the “Yellowness Index (YI) Values after Extrusion 5” value is recorded as 11.0. Further, in data set [5] (after first extrusion), the “Yellowness Index (YI) Values after Extrusion 1” value came to 7.6. Moreover, the “Yellowness Index (YI) Values after Extrusion 3” value in data set [5] (after third extrusion) was found to be 9.0. For the same molecule, the “Melt Flow after Extrusion 5” value in data set [6] (after fifth extrusion) is listed as 17.5 grams/10 minutes. In data set [6] (after first extrusion), the “Melt Flow after Extrusion 1” value was found to be 8.1 grams/10 minutes. Also, the “Melt Flow after Extrusion 3” value in data set [6] (after third extrusion) is listed as 12.9 grams/10 minutes.

Source of the values: patent US5373040A, “Amorphous solid modification of 2,2',2"-nitrilo[triethyl-tris-(3,3',5,5'-tetra-tert-butyl-1,1'-biphenyl- 2,2'-diyl)phosphite]” (Ciba-Geigy Corporation, priority 1993, dated 1994).
